For the assay, the target named is T1, human Cav2.2 (Homo sapiens, UniProt Q00975).
T1 construct: IMR32 cells endogenously expressing human Cav2.2; endogenous in cells; host or cells: IMR32 cells (human neuroblastoma)
T1 sequence (Q00975 whole entry): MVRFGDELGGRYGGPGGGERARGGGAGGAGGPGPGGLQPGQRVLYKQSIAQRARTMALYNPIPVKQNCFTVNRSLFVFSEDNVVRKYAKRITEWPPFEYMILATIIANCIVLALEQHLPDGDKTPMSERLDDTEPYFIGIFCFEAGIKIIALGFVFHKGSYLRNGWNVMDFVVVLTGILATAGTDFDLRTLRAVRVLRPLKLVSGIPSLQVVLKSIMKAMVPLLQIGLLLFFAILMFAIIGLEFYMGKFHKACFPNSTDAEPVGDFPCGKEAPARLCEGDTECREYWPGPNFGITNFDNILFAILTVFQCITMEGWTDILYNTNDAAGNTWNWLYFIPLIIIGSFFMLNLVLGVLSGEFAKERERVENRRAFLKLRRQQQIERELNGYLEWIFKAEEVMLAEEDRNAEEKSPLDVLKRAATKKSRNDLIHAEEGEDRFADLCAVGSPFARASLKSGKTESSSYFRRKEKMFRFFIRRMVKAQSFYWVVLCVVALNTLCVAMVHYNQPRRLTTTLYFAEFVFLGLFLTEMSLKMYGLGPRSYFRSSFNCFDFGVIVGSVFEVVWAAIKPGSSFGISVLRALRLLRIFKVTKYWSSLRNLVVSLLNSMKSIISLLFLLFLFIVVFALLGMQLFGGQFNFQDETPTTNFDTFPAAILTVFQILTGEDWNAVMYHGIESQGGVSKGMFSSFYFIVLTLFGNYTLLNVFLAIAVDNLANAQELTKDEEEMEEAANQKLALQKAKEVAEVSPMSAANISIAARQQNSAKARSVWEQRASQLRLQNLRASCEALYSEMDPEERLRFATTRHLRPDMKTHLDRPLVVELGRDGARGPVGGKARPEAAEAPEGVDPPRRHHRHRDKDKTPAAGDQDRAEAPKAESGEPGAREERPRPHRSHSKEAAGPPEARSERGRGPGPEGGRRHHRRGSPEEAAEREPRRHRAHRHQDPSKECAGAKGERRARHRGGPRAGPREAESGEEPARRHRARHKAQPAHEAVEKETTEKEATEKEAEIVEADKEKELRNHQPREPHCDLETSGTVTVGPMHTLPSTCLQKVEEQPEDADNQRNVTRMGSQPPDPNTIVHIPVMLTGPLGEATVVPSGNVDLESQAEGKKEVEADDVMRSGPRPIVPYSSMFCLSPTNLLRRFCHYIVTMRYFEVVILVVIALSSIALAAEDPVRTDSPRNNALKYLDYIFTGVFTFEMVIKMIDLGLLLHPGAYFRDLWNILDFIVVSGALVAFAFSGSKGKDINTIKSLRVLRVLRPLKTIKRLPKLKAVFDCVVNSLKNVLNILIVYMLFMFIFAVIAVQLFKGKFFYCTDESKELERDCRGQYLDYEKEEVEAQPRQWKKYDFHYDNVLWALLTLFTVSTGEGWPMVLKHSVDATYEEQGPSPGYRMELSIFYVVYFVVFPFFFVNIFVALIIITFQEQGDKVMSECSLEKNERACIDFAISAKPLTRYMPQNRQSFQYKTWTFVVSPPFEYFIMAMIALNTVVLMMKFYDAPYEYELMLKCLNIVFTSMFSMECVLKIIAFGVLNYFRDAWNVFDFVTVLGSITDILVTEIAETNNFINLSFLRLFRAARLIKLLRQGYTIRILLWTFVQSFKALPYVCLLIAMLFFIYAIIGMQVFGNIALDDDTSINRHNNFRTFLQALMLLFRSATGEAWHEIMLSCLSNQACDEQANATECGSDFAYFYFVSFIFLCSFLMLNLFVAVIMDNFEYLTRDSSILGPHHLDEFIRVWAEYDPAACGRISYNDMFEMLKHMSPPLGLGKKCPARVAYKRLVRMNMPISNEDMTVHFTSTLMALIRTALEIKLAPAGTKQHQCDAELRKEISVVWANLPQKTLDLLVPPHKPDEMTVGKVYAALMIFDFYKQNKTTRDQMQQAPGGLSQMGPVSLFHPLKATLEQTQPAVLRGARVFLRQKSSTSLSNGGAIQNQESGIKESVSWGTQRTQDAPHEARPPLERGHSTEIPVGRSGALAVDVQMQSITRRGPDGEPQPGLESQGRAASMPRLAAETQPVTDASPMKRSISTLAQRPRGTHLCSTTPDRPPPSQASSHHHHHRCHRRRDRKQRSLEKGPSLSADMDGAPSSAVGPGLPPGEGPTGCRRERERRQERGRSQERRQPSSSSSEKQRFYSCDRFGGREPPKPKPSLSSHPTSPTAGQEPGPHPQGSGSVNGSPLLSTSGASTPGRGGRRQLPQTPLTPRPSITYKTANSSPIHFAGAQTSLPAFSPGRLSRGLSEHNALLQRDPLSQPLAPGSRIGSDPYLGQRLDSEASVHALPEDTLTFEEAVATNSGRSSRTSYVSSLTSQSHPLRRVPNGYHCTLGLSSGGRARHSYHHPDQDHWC
T1 sequence (P54289 25-956 partner limits assumed): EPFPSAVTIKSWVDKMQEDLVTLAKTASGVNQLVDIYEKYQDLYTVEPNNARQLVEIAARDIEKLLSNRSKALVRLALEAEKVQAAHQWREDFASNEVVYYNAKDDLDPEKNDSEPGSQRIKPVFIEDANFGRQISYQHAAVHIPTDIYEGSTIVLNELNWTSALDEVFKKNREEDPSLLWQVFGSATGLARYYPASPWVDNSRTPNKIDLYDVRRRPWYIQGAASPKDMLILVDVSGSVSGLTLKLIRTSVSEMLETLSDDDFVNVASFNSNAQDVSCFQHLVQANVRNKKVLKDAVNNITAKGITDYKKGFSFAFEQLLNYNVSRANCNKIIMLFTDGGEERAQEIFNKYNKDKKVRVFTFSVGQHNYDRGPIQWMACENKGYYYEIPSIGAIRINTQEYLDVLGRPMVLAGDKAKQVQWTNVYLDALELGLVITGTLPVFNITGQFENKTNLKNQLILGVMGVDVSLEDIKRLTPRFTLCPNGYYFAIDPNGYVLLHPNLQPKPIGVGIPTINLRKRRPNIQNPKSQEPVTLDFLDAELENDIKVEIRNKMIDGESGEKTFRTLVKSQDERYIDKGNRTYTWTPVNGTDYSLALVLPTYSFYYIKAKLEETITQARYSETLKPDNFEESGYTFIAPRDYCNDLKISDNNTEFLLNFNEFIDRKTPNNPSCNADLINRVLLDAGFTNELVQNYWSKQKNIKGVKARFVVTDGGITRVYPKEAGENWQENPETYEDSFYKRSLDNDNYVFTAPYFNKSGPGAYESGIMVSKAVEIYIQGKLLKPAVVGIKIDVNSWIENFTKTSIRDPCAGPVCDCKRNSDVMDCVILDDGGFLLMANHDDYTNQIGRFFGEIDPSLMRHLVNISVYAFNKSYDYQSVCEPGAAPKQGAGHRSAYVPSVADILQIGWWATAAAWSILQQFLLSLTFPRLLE
T1 sequence (P54289 957-1103 partner limits assumed): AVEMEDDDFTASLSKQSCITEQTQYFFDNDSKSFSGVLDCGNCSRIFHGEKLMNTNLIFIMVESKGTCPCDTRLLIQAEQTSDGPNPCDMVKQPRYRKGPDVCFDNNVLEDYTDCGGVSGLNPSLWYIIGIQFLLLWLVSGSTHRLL
T1 sequence (P54284 whole entry partner): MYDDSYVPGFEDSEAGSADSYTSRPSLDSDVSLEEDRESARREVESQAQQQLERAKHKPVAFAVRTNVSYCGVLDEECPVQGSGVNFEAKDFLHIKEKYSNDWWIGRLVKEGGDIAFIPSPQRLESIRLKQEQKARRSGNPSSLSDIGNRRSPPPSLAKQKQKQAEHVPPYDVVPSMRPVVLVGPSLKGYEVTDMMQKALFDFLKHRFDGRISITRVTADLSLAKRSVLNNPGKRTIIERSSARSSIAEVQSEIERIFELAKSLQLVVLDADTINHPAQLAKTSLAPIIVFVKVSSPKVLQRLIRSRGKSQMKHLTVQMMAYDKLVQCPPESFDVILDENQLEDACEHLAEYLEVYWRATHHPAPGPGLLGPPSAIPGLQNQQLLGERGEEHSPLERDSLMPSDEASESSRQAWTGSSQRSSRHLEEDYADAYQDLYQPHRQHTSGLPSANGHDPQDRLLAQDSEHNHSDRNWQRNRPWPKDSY
Put plainly: Assessment of calcium channel activity using FLIPR (Ca2+ influx in IMR32 cells). Type of assay: cell-based. To be noted: IMR32 cells endogenously expressing human Cav2.2, Calcium 4 dye, 60 minute pre-incubation, 2 μM nifedipine, depolarized with 80 mM KCl, 5 mM CaCl2. Here is the method:
(i) In Vitro Methods—Assessment of Calcium Channel Activity Using FLIPR:
IMR32 cells endogenously expressing human Cav2.2 were assayed for Ca^2+ influx using a no-wash calcium indicator dye (Calcium 4 dye: Molecular Probes) and FLIPR technology (Lubin, M. L.; Reitz, T. L.; Todd, M. J.; Flores, C. M.; Qin, N.; Xin, H. Assay and Drug Development Technologies 2006, 4(6), 689-694.). The IMR32 cells were maintained in MEM media containing 10% (v/v) FBS, 1% (v/v) antibiotic/antimitotic, 1% (v/v) sodium pyruvate and 1% (v/v) MEM NEAA. Following dissociation in 0.05% (v/v) trypsin/EDTA, cells were seeded into black 1×96-well plates (Corning Cellbind) at a density of 1−1.2×10^5 cells/well and incubated in the maintenance media above for 48 hours at 37° C. Immediately prior to performing the assay the media was removed and cells were loaded for 1.5 hours with 1×Calcium 4 dye prepared in HBSS (137 mM NaCl, 5.4 mM KCl, 0.25 mM Na2HPO4, 0.44 mM KH2PO4, 1.3 mM CaCl2, 1 mM MgSO4, 4.2 mM NaHCO3) containing HEPES pH 7.4 at room temperature. After dye loading and a subsequent 60 minute pre-incubation with compounds (full log dilutions from 10 μM to 0.1 nM) in the presence of 1.3 mM CaCl2 and 2 μM nifedipine to block endogenous L-type channels, the external Ca^2+ concentration was increased to 5 mM CaCl2 and the cells concomitantly depolarized with 80 mM KCl to assay channel activity. To determine the IC50 values, the percent inhibition of the compound at each concentration was determined relative to the activity in the absence of inhibitor, and data was fitted using non-linear regression sigmoidal dose response curve analysis with GraphPad Prism®.
As usually defined, the IC50 is the midpoint of a concentration-inhibition curve. Regarding `C[C@@]1(NC(=O)c2cccc(F)c2)CC[C@@H]2CN(c3cccc(C(F)(F)F)n3)C[C@@H]21` [Example 18, 3-fluoro-N-{(3aR,4R,6aS)-4-methyl-2-[6-(trifluoromethyl)pyridin-2-yl]octahydrocyclopenta[c]pyrrol-4-yl}benzamide], the IC50 is 1.5 µM.
For the compound `FC(F)(F)c1cccc(N2C[C@H]3CC[C@H](n4cccn4)[C@H]3C2)n1` [Example 51, (3aR,4S,6aS)-4-(1H-pyrazol-1-yl)-2-[6-(trifluoromethyl)pyridin-2-yl]octahydrocyclopenta[c]pyrrole], the IC50 is 1.39 µM.
Next, `C[C@]1(NCc2ccccc2)CC[C@@H]2CN(c3cccc(C(F)(F)F)n3)C[C@@H]21` [Example 20, (3aR,4S,6aS)—N-benzyl-4-methyl-2-[6-(trifluoromethyl)pyridin-2-yl]octahydrocyclopenta[c]pyrrol-4-amine]: 0.38 µM; `O=C1CC[C@@H]2CN(c3cccc(C(F)(F)F)n3)C[C@H]12` [Example 32, (3aR,6aS)-2-[6-(trifluoromethyl)pyridin-2-yl]hexahydrocyclopenta[c]pyrrol-4(1H)-one]: 21.4 µM; `Fc1cccc(CCO[C@H]2CC[C@@H]3CN(c4cccc(C(F)(F)F)n4)C[C@@H]32)c1` [Example 46]: 8.41 µM.
Regarding `CC(=O)N[C@]1(C)CC[C@@H]2CN(c3cccc(C(F)(F)F)n3)C[C@@H]21` [Example 16, N-{(3aR,4R,6aS)-4-methyl-2-[6-(trifluoromethyl)pyridin-2-yl]octahydrocyclopenta[c]pyrrol-4-yl}acetamide], the half-maximal inhibitory concentration (IC50) came out at 6.44 µM.
For `Cc1ccn([C@H]2CC[C@@H]3CN(c4cccc(C(F)(F)F)n4)C[C@@H]32)n1` [Example 66, (3aR,4S,6aS)-4-(3-methyl-1H-pyrazol-1-yl)-2-[6-(trifluoromethyl)pyridin-2-yl]octahydrocyclopenta[c]pyrrole], the IC50 worked out at 5.74 µM.
The result for `CC(C)(C)O[C@H]1CC[C@@H]2CN(c3cccc(C(F)(F)F)n3)C[C@@H]21` [Example 43, (3aR,4S,6aS)-4-tert-butoxy-2-[6-(trifluoromethyl)pyridin-2-yl]octahydrocyclopenta[c]pyrrole] reads 2.54 µM; that for `O[C@]1(c2ccccc2)CC[C@@H]2CN(Cc3ccccc3)C[C@@H]21` [Example 47, (3aR,4R,6aS)-2-benzyl-4-phenyloctahydrocyclopenta[c]pyrrol-4-ol], 8.83 µM; that for `CC(C)O[C@H]1CC[C@@H]2CN(c3cccc(C(F)(F)F)n3)C[C@@H]21` [Example 42, (3aR,4S,6aS)-4-isopropoxy-2-[6-(trifluoromethyl)pyridin-2-yl]octahydrocyclopenta[c]pyrrole], 3.82 µM.
Next, `O=C(Nc1cccc(F)c1)[C@H]1CC[C@@H]2CN(c3cccc(C(F)(F)F)n3)C[C@@H]21` [Example 56, (3aS,4S,6aS)—N-(3-fluorophenyl)-2-[6-(trifluoromethyl)pyridin-2-yl]octahydrocyclopenta[c]pyrrole-4-carboxamide]: 8.9 µM; `O[C@]1(c2ccccc2)CC[C@@H]2CN(c3cccc(C(F)(F)F)n3)C[C@@H]21` [Example 35, (3aR,4R,6aS)-4-phenyl-2-[6-(trifluoromethyl)pyridin-2-yl]octahydrocyclopenta[c]pyrrol-4-ol]: 2.87 µM; `Fc1cccc(CO[C@H]2CC[C@@H]3CN(c4cccc(C(F)(F)F)n4)C[C@@H]32)c1` [Example 45, (3aR,4S,6aS)-4-[(3-fluorobenzyl)oxy]-2-[6-(trifluoromethyl)pyridin-2-yl]octahydrocyclopenta[c]pyrrole]: 8.05 µM.
As to `O[C@]1(c2cccc(F)c2)CC[C@@H]2CN(c3cccc(C(F)(F)F)n3)C[C@@H]21` [Example 36, (3aR,4R,6aS)-4-(3-fluorophenyl)-2-[6-(trifluoromethyl)pyridin-2-yl]octahydrocyclopenta[c]pyrrol-4-ol], the IC50 worked out at 6.13 µM.
Turning to `FC(F)(F)c1cccc(N2C[C@H]3CC[C@H](n4cnc5ccccc54)[C@H]3C2)n1` [Example 60, 1-{(3aR,4S,6aS)-2-[6-(trifluoromethyl)pyridin-2-yl]octahydrocyclopenta[c]pyrrol-4-yl}-1H-benzimidazole], the IC50 was determined as 1.96 µM.
Next, `O[C@H]1[C@H]2CN(c3cccc(C(F)(F)F)n3)C[C@H]2C[C@@H]1n1ccnc1` [Example 69, (3aR,4S,5S,6aS)-5-(1H-imidazol-1-yl)-2-[6-(trifluoromethyl)pyridin-2-yl]octahydrocyclopenta[c]pyrrol-4-ol]: 9.15 µM; `C[C@@]1(O)CC[C@@H]2CN(c3cccc(C(F)(F)F)n3)C[C@@H]21` [Example 33, (3aR,4R,6aS)-4-methyl-2-[6-(trifluoromethyl)pyridin-2-yl]octahydrocyclopenta[c]pyrrol-4-ol]: 8.34 µM.
In the case of `Fc1cccc(O[C@H]2CC[C@@H]3CN(Cc4ccccc4)C[C@@H]32)c1` [Example 48, (3aR,4S,6aS)-2-benzyl-4-(3-fluorophenoxy)octahydrocyclopenta[c]pyrrole], the IC50 came out at 2.95 µM.
For the compound `O[C@]1(Cc2ccc(F)c(F)c2)CC[C@@H]2CN(c3cccc(C(F)(F)F)n3)C[C@@H]21` [Example 37, (3aR,4S,6aS)-4-(3,4-difluorobenzyl)-2-[6-(trifluoromethyl)pyridin-2-yl]octahydrocyclopenta[c]pyrrol-4-ol], the IC50 amounted to 3.72 µM.
As for `O=C(Nc1cccc(F)c1)[C@H]1CC[C@@H]2CNC[C@@H]21` [Example 55, (3aS,4S,6aS)—N-(3-fluorophenyl)octahydrocyclopenta[c]pyrrole-4-carboxamide], the IC50 was above 30 µM.
Regarding `CN[C@@H](CC(C)C)C(=O)N[C@@]1(C)CC[C@@H]2CN(c3cccc(C(F)(F)F)n3)C[C@@H]21` [Example 71, N^2-methyl-N-{(3aR,4S,6aS)-4-methyl-2-[6-(trifluoromethyl)pyridin-2-yl]octahydrocyclopenta[c]pyrrol-4-yl}-L-leucinamide], the IC50 was determined as 0.78 µM.
As for `C[C@]1(NCc2cccc(F)c2)CC[C@@H]2CN(c3cccc(C(F)(F)F)n3)C[C@@H]21` [Example 25, (3aR,4S,6aS)—N-(3-fluorobenzyl)-4-methyl-2-[6-(trifluoromethyl)pyridin-2-yl]octahydrocyclopenta[c]pyrrol-4-amine], the IC50 is 0.18 µM.
Next, `CCN[C@]1(C)CC[C@@H]2CN(c3cccc(C(F)(F)F)n3)C[C@@H]21` [Example 22, (3aR,4R,6aS)—N-ethyl-4-methyl-2-[6-(trifluoromethyl)pyridin-2-yl]octahydrocyclopenta[c]pyrrol-4-amine]: 5.85 µM.
Turning to `C[C@]1(NC(=O)CCC(F)(F)F)CC[C@@H]2CN(c3cccc(C(F)(F)F)n3)C[C@@H]21` [Example 72, 4,4,4-trifluoro-N-{(3aR,4S,6aS)-4-methyl-2-[6-(trifluoromethyl)pyridin-2-yl]octahydrocyclopenta[c]pyrrol-4-yl}butanamide], the IC50 was found to be 1.15 µM.
The result for `C[C@@]1(NCc2ccccc2)CC[C@@H]2CN(c3cccc(C(F)(F)F)n3)C[C@@H]21` [Example 21, (3aR,4R,6aS)—N-benzyl-4-methyl-2-[6-(trifluoromethyl)pyridin-2-yl]octahydrocyclopenta[c]pyrrol-4-amine] reads 1.03 µM; that for `C[C@]1(NC(=O)c2ccccc2)CC[C@@H]2CN(Cc3ccccc3)C[C@@H]21` [Example 3, N-[(3aR,4S,6aS)-2-benzyl-4-methyloctahydrocyclopenta[c]pyrrol-4-yl]benzamide], 12 µM; that for `C[C@]1(N)CC[C@@H]2CN(c3cccc(C(F)(F)F)n3)C[C@@H]21` [Example 27, (3aR,4S,6aS)-4-methyl-2-[6-(trifluoromethyl)pyridin-2-yl]octahydrocyclopenta[c]pyrrol-4-amine], 1.8 µM.
On to `CC(=O)N[C@@]1(C)CC[C@@H]2CN(Cc3ccccc3)C[C@@H]21` [Example 5, N-[(3aR,4S,6aS)-2-benzyl-4-methyloctahydrocyclopenta[c]pyrrol-4-yl]acetamide], for which the IC50 was above 30 µM.
Next, `C[C@@]1(NC(=O)c2ccccc2)CC[C@@H]2CN(Cc3ccccc3)C[C@@H]21` [Example 2, N-[(3aR,4R,6aS)-2-benzyl-4-methyloctahydrocyclopenta[c]pyrrol-4-yl]benzamide]: 11.5 µM; `CC(=O)N[C@@]1(C)CC[C@@H]2CN(c3cccc(C(F)(F)F)n3)C[C@@H]21` [Example 17, N-{(3aR,4S,6aS)-4-methyl-2-[6-(trifluoromethyl)pyridin-2-yl]octahydrocyclopenta[c]pyrrol-4-yl}acetamide]: 3.27 µM.
In the case of `C[C@@]1(N)CC[C@@H]2CN(c3cccc(C(F)(F)F)n3)C[C@@H]21` [Example 26, (3aR,4R,6aS)-4-methyl-2-[6-(trifluoromethyl)pyridin-2-yl]octahydrocyclopenta[c]pyrrol-4-amine], the IC50 amounted to 3.64 µM.

For the origin of these results see patent US8796470B2 (AbbVie Inc., priority 2010, dated 2014).
